Source: patent US5202315A, “Cephalosporin compounds” (Lucky, Ltd., priority 1989, dated 1993)
Values after ≈ are worked out from the molar mass of the structure shown. Like-named read-outs stand apart in the source and are kept apart here.

Legend:
Assay type in all cases: cell-based
Pseudomonas aeruginosa = test: Antibacterial activity against clinically isolated strains, MIC
[1] = tested on: Staphylococcus aureus methicillin susceptible; test: as above
[2] = tested on: Staphylococcus aureus methicillin resistant; test: as above; conditions: methicillin resistant, 7 clinical isolates, broth microdilution test; for MIC90: read-out: MIC 90%
Escherichia coli = test: as above; conditions: 38 clinical isolates, broth microdilution test
[3] = tested on: Bacillus cereus ATCC 11778; test: Antibacterial activity, MIC; conditions: ATCC11778, ATCC 11778, agar two-fold dilution, 37° C., 20 hours, read-out: MIC
Method in brief: (§1)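 Agar two-fold dilution method: compound serially diluted two-fold in Mueller-Hinton agar, spotted with 2 μl of a 10^7 CFU/ml inoculum of each standard strain, then incubated at 37 °C for 20 h.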

[4] = tested on: Staphylococcus aureus ATCC 6538p; test: Antibacterial activity, MIC; conditions: ATCC6538P, ATCC 6538p, agar two-fold dilution, 37° C., 20 hours, read-out: MIC
Method in brief: as §1

[5] = tested on: Citrobacter freundii ATCC 8090; test: Antibacterial activity, MIC; conditions: ATCC8090, ATCC 8090, agar two-fold dilution, 37° C., 20 hours, read-out: MIC
Method in brief: as §1

[6] = tested on: Pseudomonas aeruginosa ATCC 27853; test: Antibacterial activity, MIC; conditions: ATCC27853, ATCC 27853, agar two-fold dilution, 37° C., 20 hours, read-out: MIC
Method in brief: as §1

[7] = tested on: Micrococcus luteus ATCC 9341; test: Antibacterial activity, MIC; conditions: ATCC9341, ATCC 9341, agar two-fold dilution, 37° C., 20 hours, read-out: MIC
Method in brief: as §1

[8] = tested on: Shigella sonnei ATCC 11060; test: Antibacterial activity, MIC; conditions: ATCC11060, ATCC 11060, agar two-fold dilution, 37° C., 20 hours, read-out: MIC
Method in brief: as §1

[9] = tested on: Escherichia coli ATCC 10536; test: Antibacterial activity, MIC; conditions: ATCC10536, agar two-fold dilution, 37° C., 20 hours
Method in brief: as §1

[10] = tested on: Salmonella typhimurium ATCC 14028; test: Antibacterial activity, MIC; conditions: Salmonella enterica; ATCC 14028; agar two-fold dilution, 37° C., 20 hours; read-out: MIC
Method in brief: as §1

[11] = tested on: Acinetobacter calcoaceticus ATCC 15473; test: Antibacterial activity, MIC; conditions: ATCC15473, ATCC 15473, agar two-fold dilution, 37° C., 20 hours, read-out: MIC
Method in brief: as §1

[12] = tested on: Bacillus megaterium ATCC 9885; test: Antibacterial activity, MIC; conditions: Priestia megaterium, ATCC9885; ATCC 9885; agar two-fold dilution, 37° C., 20 hours; read-out: MIC
Method in brief: as §1

[13] = tested on: Shigella flexneri ATCC 11836; test: Antibacterial activity, MIC; conditions: ATCC11836, agar two-fold dilution, 37° C., 20 hours
Method in brief: as §1

[14] = tested on: Staphylococcus aureus ATCC 10537; test: Antibacterial activity, MIC; conditions: ATCC10537, ATCC 10537, agar two-fold dilution, 37° C., 20 hours, read-out: MIC
Method in brief: as §1

[15] = tested on: Staphylococcus epidermidis ATCC 12228; test: Antibacterial activity, MIC; conditions: ATCC12228, ATCC 12228, agar two-fold dilution, 37° C., 20 hours, read-out: MIC
Method in brief: as §1

[16] = tested on: Serratia marcescens ATCC 27117; test: Antibacterial activity, MIC; conditions: ATCC27117, ATCC 27117, agar two-fold dilution, 37° C., 20 hours, read-out: MIC
Method in brief: as §1

[17] = tested on: Providencia rettgeri ATCC 9250; test: Antibacterial activity, MIC; conditions: ATCC9250, agar two-fold dilution, 37° C., 20 hours
Method in brief: as §1

[18] = tested on: Proteus vulgaris ATCC 6059; test: Antibacterial activity, MIC; conditions: ATCC6059, ATCC 6059, agar two-fold dilution, 37° C., 20 hours, read-out: MIC
Method in brief: as §1

[19] = tested on: Enterobacter cloacae ATCC 27508; test: Antibacterial activity, MIC; conditions: ATCC27508, ATCC 27508, agar two-fold dilution, 37° C., 20 hours, read-out: MIC
Method in brief: as §1

[20] = tested on: Pseudomonas aeruginosa ATCC 10145; test: Antibacterial activity, MIC; conditions: ATCC10145, ATCC 10145, agar two-fold dilution, 37° C., 20 hours, read-out: MIC
Method in brief: as §1

[21] = tested on: Proteus mirabilis ATCC 25933; test: Antibacterial activity, MIC; conditions: ATCC25933, ATCC 25933, agar two-fold dilution, 37° C., 20 hours, read-out: MIC
Method in brief: as §1

[22] = tested on: Morganella morganii ATCC 8076h; test: Antibacterial activity, MIC; conditions: ATCC8076H, agar two-fold dilution, 37° C., 20 hours
Method in brief: as §1

[23] = tested on: Enterobacter aerogenes ATCC 29751; test: Antibacterial activity, MIC; conditions: Klebsiella aerogenes, ATCC29751; ATCC 29751; agar two-fold dilution, 37° C., 20 hours; read-out: MIC
Method in brief: as §1

[24] = tested on: Streptococcus faecalis ATCC 29212; test: Antibacterial activity, MIC; conditions: Enterococcus faecalis, ATCC29212; ATCC 29212; agar two-fold dilution, 37° C., 20 hours; read-out: MIC
Method in brief: as §1

[25] = tested on: Klebsiella pneumoniae ATCC 10031; test: Antibacterial activity, MIC; conditions: ATCC10031, ATCC 10031, agar two-fold dilution, 37° C., 20 hours, read-out: MIC
Method in brief: as §1

[26] = tested on: Pseudomonas aeruginosa ATCC 25619; test: Antibacterial activity, MIC; conditions: ATCC25619, ATCC 25619, agar two-fold dilution, 37° C., 20 hours, read-out: MIC
Method in brief: as §1

[27] = tested on: Escherichia coli ATCC 25922; test: Antibacterial activity, MIC; conditions: ATCC25922, agar two-fold dilution, 37° C., 20 hours
Method in brief: as §1

Klebsiella pneumoniae = test: Antibacterial activity against clinically isolated strains, MIC; conditions: 10 clinical isolates, broth microdilution test; for MIC90: read-out: MIC 90%
[28] = 54 clinical isolates, broth microdilution test
[29] = methicillin susceptible, 42 clinical isolates, broth microdilution test

SMILES | MIC50 (Pseudomonas aeruginosa; [28]) [µg/mL] | MIC50 [1, 29] [µg/mL] | MIC50 [2] [µg/mL] | MIC90 [2] [µg/mL] | MIC50 (Escherichia coli) [µg/mL] | MIC90 (Escherichia coli) [µg/mL] | MIC [3] [µg/mL] | MIC [4] [µg/mL] | MIC [5] [µg/mL] | MIC [6] [µg/mL] | MIC [7] [µg/mL] | MIC [8] [µg/mL] | MIC [9] [µg/mL] | MIC [10] [µg/mL] | MIC [11] [µg/mL] | MIC [12] [µg/mL] | MIC [13] [µg/mL] | MIC [14] [µg/mL] | MIC [15] [µg/mL] | MIC [16] [µg/mL] | also measured
CCO/N=C(\C(=O)NC1C(=O)N2C(C(=O)[O-])=C(CSc3nc(N)cc(N)[n+]3C)CSC12)c1nsc(N)n1 (centres unmarked) [Compound I-20] | 4 (≈ 7.06 µM) | 0.5 (≈ 0.882 µM) | 16 (≈ 28.2 µM) | 32 (≈ 56.5 µM) | 0.063 (≈ 0.111 µM) | 0.25 (≈ 0.441 µM) | 32 (≈ 56.5 µM) | 0.5 (≈ 0.882 µM) | 0.13 (≈ 0.229 µM) | 2 (≈ 3.53 µM) | 0.031 (≈ 0.0547 µM) | 0.13 (≈ 0.229 µM) | 0.13 (≈ 0.229 µM) | 0.5 (≈ 0.882 µM) | 2 (≈ 3.53 µM) | 0.13 (≈ 0.229 µM) | 0.031 (≈ 0.0547 µM) | 0.25 (≈ 0.441 µM) | 0.25 (≈ 0.441 µM) | 0.25 (≈ 0.441 µM) | MIC90 (Pseudomonas aeruginosa): 16 µg/mL (≈ 28.2 µM); MIC90 [1]: 0.5 µg/mL (≈ 0.882 µM); MIC [17]: ≤ 0.008 µg/mL; MIC [18]: 1 µg/mL (≈ 1.76 µM); MIC [19]: 0.016 µg/mL (≈ 0.0282 µM); MIC [20]: 4 µg/mL (≈ 7.06 µM); MIC [21]: 0.5 µg/mL (≈ 0.882 µM); MIC [22]: 0.016 µg/mL (≈ 0.0282 µM); MIC [23]: 0.25 µg/mL (≈ 0.441 µM); MIC [24]: 32 µg/mL (≈ 56.5 µM); MIC [25]: 0.016 µg/mL (≈ 0.0282 µM); MIC [26]: 1 µg/mL (≈ 1.76 µM); MIC [27]: 0.13 µg/mL (≈ 0.229 µM); MIC50 (Klebsiella pneumoniae): 0.13 µg/mL (≈ 0.229 µM); MIC90 (Klebsiella pneumoniae): 0.13 µg/mL (≈ 0.229 µM)
C#CCO/N=C(\C(=O)NC1C(=O)N2C(C(=O)[O-])=C(CSc3nc(N)cc(N)[n+]3N)CSC12)c1csc(N)n1 (centres unmarked) [Compound I-18] | 4 (≈ 6.94 µM) | 0.25 (≈ 0.434 µM) | 128 (≈ 222 µM) | > 128 | 0.13 (≈ 0.225 µM) | 0.25 (≈ 0.434 µM) | 8 (≈ 13.9 µM) | 0.25 (≈ 0.434 µM) | 0.063 (≈ 0.109 µM) | 2 (≈ 3.47 µM) | 0.013 (≈ 0.0225 µM) | 0.13 (≈ 0.225 µM) | 0.13 (≈ 0.225 µM) | 0.25 (≈ 0.434 µM) | 2 (≈ 3.47 µM) | 0.063 (≈ 0.109 µM) | 0.016 (≈ 0.0277 µM) | 0.25 (≈ 0.434 µM) | 0.063 (≈ 0.109 µM) | 0.13 (≈ 0.225 µM) | MIC90 (Pseudomonas aeruginosa; 54 clinical isolates, broth microdilution test, read-out: MIC 90%): 8 µg/mL (≈ 13.9 µM); MIC90 ([1]; methicillin susceptible, 42 clinical isolates, broth microdilution test, read-out: MIC 90%): 0.25 µg/mL (≈ 0.434 µM); MIC [17]: ≤ 0.008 µg/mL; MIC [18]: 0.13 µg/mL (≈ 0.225 µM); MIC [19]: ≤ 0.008 µg/mL; MIC [20]: 4 µg/mL (≈ 6.94 µM); MIC [21]: 0.13 µg/mL (≈ 0.225 µM); MIC [22]: ≤ 0.008 µg/mL; MIC [23]: 0.25 µg/mL (≈ 0.434 µM); MIC [24]: 32 µg/mL (≈ 55.5 µM); MIC [25]: ≤ 0.008 µg/mL; MIC [26]: 0.5 µg/mL (≈ 0.867 µM); MIC [27]: 0.063 µg/mL (≈ 0.109 µM); MIC (Klebsiella pneumoniae): 0.13 µg/mL (≈ 0.225 µM); MIC50 (Klebsiella pneumoniae): 0.13 µg/mL (≈ 0.225 µM); MIC90 (Klebsiella pneumoniae): 0.13 µg/mL (≈ 0.225 µM)
